According to ChEMBL document CHEMBL5465560, “Selectivity Literature for EUbOPEN Chemogenomic Library” (2024):

Assays:
[1] = molecular target: Angiopoietin-1 receptor (Homo sapiens) (UniProt Q02763); assay: Selectivity interaction (KinomeScan (DiscoverX)) EUB0000618a TEK; conditions: at 10 µM
[2] = molecular target: T1, Serine/threonine-protein kinase DCLK3 (Homo sapiens) (UniProt Q9C098); assay: Selectivity interaction (KinomeScan (DiscoverX)) EUB0000595a DCLK3; conditions: at 10 µM
T1 sequence (whole entry): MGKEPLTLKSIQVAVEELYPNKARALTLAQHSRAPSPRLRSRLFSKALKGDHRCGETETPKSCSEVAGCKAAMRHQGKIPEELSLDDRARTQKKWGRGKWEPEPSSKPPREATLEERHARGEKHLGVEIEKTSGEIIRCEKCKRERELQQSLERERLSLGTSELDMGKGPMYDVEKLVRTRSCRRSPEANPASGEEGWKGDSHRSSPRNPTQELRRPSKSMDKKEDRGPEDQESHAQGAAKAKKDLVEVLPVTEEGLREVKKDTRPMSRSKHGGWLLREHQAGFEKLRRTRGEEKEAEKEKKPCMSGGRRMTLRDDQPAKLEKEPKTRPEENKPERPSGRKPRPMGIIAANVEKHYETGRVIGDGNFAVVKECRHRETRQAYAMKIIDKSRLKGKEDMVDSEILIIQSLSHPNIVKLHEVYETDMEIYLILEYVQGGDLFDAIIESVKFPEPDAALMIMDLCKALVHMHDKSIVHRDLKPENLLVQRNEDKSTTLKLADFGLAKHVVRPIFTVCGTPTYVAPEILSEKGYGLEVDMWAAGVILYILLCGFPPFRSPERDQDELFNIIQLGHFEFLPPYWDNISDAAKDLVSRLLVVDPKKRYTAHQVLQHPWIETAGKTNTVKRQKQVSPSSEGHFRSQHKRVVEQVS

[3] = molecular target: Mitogen-activated protein kinase kinase kinase kinase 1 (Homo sapiens) (UniProt Q92918); conditions: at 10 µM
Chain of Mitogen-activated protein kinase kinase kinase kinase 1 (Homo sapiens) (Q92918 whole entry, looked up): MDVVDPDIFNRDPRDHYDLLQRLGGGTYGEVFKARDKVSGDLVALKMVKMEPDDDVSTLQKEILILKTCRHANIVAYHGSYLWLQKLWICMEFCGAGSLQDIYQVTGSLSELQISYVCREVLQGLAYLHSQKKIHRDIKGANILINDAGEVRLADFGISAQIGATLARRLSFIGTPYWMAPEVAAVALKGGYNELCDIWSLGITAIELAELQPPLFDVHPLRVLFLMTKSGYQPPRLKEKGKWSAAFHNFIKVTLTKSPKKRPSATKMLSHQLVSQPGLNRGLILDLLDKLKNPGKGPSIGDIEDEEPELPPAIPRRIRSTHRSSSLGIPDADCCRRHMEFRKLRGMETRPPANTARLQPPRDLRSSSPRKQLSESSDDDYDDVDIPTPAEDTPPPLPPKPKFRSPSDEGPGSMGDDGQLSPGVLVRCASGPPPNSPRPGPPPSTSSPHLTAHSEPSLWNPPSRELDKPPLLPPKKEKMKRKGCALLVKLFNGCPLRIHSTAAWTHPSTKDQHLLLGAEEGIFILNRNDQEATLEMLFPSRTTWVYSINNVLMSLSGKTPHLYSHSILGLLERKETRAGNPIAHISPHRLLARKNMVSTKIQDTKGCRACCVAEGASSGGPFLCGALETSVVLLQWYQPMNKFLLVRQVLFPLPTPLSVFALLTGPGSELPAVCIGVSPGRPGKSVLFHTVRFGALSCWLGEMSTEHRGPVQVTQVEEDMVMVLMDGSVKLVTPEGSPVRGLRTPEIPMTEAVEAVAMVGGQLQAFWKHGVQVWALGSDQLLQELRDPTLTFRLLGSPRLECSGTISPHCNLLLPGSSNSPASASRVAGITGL

[4] = molecular target: T2, Calcium/calmodulin-dependent protein kinase type IV (Homo sapiens) (UniProt Q16566); assay: Selectivity interaction (ProQinase) EUB0000171b CAMK4
T2 sequence (whole entry): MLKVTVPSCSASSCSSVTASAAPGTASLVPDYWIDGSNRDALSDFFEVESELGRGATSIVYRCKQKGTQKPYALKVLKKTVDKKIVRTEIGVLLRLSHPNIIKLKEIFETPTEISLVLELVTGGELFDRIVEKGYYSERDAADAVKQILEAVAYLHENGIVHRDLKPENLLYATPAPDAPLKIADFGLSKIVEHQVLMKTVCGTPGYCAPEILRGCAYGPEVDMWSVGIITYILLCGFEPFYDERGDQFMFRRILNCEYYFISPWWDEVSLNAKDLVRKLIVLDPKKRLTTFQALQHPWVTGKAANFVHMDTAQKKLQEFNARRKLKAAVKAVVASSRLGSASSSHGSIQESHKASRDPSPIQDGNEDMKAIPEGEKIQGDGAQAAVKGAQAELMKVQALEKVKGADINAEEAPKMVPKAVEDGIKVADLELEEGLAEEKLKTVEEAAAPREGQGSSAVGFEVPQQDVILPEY

[5] = molecular target: T3, Serine/threonine-protein kinase LATS1 (Homo sapiens) (UniProt O95835); assay: Selectivity interaction (KinomeScan (DiscoverX)) EUB0001049a LATS1; conditions: at 1 µM
T3 sequence (whole entry): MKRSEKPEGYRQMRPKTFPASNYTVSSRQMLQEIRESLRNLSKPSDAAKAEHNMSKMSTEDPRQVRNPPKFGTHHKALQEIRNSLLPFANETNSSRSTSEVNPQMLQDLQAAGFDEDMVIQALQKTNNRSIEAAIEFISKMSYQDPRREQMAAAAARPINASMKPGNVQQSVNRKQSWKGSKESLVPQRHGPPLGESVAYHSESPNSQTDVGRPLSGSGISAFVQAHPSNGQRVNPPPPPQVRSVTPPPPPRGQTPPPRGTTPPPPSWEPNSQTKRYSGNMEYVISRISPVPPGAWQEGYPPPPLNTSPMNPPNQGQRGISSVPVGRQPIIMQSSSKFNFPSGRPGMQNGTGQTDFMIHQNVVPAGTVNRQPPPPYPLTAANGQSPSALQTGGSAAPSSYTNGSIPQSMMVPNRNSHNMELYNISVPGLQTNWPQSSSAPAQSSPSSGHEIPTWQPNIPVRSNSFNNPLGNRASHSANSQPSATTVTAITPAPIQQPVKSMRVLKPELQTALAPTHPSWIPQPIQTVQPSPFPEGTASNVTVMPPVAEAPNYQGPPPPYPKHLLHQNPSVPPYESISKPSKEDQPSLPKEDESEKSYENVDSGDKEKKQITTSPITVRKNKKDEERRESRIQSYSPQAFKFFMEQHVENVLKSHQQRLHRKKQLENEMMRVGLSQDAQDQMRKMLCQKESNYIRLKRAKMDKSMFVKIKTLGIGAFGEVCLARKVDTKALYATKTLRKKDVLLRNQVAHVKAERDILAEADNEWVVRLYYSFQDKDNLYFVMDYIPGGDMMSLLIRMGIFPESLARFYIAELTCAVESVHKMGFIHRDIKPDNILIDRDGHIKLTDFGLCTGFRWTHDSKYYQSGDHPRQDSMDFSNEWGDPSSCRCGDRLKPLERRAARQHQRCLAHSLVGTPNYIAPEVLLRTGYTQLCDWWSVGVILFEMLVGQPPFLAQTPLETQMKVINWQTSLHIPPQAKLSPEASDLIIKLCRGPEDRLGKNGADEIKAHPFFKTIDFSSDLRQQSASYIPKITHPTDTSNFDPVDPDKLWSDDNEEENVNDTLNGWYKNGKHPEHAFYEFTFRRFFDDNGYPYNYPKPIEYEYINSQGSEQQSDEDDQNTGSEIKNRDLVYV

[6] = molecular target: LIM domain kinase 2 (Homo sapiens) (UniProt P53671); assay: Selectivity interaction (KinomeScan (DiscoverX)) EUB0001049a LIMK2; conditions: at 1 µM
Chain of LIM domain kinase 2 (Homo sapiens) (P53671 whole entry, looked up, the tested form may be a part): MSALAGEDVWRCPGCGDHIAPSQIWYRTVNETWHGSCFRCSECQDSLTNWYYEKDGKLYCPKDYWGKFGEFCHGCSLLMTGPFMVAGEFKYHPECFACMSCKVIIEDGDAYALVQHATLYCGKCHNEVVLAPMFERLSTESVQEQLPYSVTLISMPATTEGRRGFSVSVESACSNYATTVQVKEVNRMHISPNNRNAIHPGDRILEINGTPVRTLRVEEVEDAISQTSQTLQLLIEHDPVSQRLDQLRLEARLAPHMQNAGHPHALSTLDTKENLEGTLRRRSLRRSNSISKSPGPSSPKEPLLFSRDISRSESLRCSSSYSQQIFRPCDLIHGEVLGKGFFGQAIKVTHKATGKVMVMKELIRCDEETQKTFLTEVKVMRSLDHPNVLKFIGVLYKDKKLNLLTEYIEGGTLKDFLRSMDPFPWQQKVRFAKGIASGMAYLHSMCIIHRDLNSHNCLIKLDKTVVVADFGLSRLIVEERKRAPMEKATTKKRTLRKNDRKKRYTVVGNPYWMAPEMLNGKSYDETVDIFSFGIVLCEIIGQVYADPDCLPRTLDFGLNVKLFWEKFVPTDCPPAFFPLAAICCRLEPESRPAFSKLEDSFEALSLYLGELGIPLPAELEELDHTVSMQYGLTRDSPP

[7] = molecular target: Protein kinase C theta type (Homo sapiens, UniProt Q04759); assay: Selectivity interaction (KinomeScan (DiscoverX)) EUB0000311b PRKCQ; conditions: at 1 µM
Chain of Protein kinase C theta type (Q04759 whole entry, looked up): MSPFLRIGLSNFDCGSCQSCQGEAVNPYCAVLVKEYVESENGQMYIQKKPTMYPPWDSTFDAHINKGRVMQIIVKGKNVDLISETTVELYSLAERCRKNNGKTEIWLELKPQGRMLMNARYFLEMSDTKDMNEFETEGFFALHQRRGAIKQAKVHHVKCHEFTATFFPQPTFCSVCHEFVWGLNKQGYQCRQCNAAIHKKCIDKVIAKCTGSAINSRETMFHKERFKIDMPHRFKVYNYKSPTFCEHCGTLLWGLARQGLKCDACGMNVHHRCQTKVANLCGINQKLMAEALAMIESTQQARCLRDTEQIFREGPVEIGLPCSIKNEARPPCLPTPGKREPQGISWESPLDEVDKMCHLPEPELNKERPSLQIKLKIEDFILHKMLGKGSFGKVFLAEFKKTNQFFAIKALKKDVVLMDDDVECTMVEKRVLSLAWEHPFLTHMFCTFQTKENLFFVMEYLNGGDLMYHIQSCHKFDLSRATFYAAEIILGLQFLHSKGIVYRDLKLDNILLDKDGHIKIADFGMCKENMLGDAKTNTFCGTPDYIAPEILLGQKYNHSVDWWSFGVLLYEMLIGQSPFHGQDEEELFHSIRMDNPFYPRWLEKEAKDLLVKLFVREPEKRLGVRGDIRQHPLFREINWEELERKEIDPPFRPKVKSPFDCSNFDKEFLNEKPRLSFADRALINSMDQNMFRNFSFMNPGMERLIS

[8] = molecular target: Ribosomal protein S6 kinase beta-1 (Homo sapiens, UniProt P23443); assay: Selectivity interaction (Kinase panel (Z-LYTE Assay)) EUB0001632a RPS6KB1; conditions: at 10 µM
Chain of Ribosomal protein S6 kinase beta-1 (P23443 whole entry, looked up): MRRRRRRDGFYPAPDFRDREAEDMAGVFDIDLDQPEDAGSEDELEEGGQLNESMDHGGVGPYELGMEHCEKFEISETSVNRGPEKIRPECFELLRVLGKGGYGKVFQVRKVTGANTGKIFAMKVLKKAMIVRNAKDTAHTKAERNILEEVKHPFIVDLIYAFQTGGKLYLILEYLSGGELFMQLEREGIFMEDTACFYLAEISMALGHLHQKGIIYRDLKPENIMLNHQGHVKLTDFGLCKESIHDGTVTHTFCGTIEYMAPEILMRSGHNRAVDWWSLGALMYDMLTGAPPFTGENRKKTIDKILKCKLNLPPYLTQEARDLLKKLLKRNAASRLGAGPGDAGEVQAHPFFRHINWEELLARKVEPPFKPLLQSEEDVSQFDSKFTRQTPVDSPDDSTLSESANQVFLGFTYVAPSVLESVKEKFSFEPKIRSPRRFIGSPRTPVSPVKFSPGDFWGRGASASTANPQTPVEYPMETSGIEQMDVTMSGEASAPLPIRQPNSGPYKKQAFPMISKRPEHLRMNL

[9] = molecular target: SRSF protein kinase 2 (Homo sapiens) (UniProt P78362); assay: Selectivity interaction (KinomeScan (DiscoverX)) EUB0000695a SRPK2; conditions: at 100 nM
Chain of SRSF protein kinase 2 (Homo sapiens) (P78362 whole entry, looked up): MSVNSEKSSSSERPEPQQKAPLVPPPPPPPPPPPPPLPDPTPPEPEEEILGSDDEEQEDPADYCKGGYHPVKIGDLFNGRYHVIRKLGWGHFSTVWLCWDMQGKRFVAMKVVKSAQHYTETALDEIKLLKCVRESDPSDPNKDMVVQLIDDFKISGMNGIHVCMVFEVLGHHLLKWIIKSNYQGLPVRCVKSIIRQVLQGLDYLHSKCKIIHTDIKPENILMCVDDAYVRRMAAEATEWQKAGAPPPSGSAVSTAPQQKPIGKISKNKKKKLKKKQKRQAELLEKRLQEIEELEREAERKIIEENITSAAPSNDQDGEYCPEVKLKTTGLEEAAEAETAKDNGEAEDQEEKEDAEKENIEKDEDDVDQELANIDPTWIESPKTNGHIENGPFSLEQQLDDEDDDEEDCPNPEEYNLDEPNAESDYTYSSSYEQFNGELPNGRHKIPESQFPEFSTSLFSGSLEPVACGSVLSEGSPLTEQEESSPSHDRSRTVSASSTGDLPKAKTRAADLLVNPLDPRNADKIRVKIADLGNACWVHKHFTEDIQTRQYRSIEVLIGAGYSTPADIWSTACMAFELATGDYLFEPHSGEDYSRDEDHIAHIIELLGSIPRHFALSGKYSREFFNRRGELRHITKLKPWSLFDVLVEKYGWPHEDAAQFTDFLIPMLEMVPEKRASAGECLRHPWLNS

Chain of Angiopoietin-1 receptor (Homo sapiens) (Q02763 whole entry): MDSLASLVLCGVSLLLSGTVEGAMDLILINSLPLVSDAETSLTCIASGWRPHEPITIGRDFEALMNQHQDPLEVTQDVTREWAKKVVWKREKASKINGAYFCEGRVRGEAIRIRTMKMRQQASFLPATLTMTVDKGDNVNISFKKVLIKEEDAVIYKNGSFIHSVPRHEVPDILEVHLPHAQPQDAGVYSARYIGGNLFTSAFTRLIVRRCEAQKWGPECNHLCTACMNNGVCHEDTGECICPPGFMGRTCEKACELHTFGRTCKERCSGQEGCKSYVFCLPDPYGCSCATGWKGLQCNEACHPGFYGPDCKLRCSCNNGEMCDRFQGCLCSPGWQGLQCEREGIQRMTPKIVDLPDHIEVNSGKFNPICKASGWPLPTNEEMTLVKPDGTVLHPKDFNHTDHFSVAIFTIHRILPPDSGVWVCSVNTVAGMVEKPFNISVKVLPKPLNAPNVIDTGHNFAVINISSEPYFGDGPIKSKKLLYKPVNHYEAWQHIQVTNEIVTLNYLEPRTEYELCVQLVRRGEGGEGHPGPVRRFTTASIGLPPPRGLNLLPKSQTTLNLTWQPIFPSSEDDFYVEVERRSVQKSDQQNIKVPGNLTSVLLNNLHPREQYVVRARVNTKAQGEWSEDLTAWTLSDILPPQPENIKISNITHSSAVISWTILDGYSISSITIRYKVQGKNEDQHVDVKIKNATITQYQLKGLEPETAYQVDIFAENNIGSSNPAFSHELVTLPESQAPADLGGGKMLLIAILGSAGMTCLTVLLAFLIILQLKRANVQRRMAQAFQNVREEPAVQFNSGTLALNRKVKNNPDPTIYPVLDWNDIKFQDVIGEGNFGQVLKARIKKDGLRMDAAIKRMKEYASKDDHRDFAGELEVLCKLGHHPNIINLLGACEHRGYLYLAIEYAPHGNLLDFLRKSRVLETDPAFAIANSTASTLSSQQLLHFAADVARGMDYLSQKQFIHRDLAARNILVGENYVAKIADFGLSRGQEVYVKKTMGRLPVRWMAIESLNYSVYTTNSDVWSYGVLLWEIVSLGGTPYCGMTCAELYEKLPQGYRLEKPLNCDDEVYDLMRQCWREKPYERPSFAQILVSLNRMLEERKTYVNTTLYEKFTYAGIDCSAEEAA

O[C@H]1CC[C@H](Nc2ncc3nc(Nc4c(F)cc(F)cc4F)n([C@H]4CCOC4)c3n2)CC1
% of control [1]: 100%

COCC(=O)NC/C=C/c1ccc2ncnc(Nc3ccc(Oc4ccc(C)nc4)c(C)c3)c2c1 [CP-724714]
% of control [2]: 83%

Cc1cc([C@@H](C)Nc2ccccc2C(=O)O)c2nc(N3CCOCC3)cc(=O)n2c1 [AZD-6482]
% of control [3]: 100%

C=CC(=O)Nc1cccc(C(=O)Nc2ccc(Nc3cc(-c4[nH]c(SC)nc4C)ccn3)cc2)c1
% of control ([4]; at 1 µM): 110% | % of control ([4]; at 5 µM): 91%

COc1cc(Nc2nc(C)cc(-c3cnn4nc(OC)ccc34)n2)cc(C(F)(F)F)c1
% of control [5]: 100% | % of control [6]: 92%

CCc1ccccc1C(=O)Nc1n[nH]c2c(C)c(F)c(C3C(C#N)=C(C)N(C)C(C)=C3C#N)cc12 [BAY-3827]
% of control [7]: 15%

Cn1cc(-n2cnc3c(NCc4nc5cc(Cl)c(Cl)cc5[nH]4)nc(N4CCOCC4)nc32)cn1
% of control [8]: 2.46%

Cc1cc(F)c(C(=O)Nc2cccc(-c3nncn3C(C)C)n2)cc1-n1cnc(C2CC2)c1
% of control [9]: 100%
